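In this assay, cells in 96-well plates receive the compound at five concentrations for 48 hours. Endpoints are linearly interpolated between the surrounding concentrations. TGI marks complete inhibition of growth.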
Legend:
Experiment in all cases: NCI-60 cell line screen, 48 h
[1] = tested on: RXF-631 renal
[2] = tested on: NCI-H226 lung
[3] = tested on: HOP-92 NSCLC
[4] = tested on: SK-OV-3 ovarian
[5] = tested on: SF-268 CNS
[6] = tested on: UACC-62 melanoma
[7] = tested on: SNB-19 CNS
[8] = tested on: SR leukemia
[9] = tested on: LXFL 529 NSCLC
[10] = tested on: OVCAR-3 ovarian
[11] = tested on: HCT-116 colon
[12] = tested on: SN12C renal
[13] = tested on: EKVX NSCLC
[14] = tested on: RXF 393 renal
[15] = tested on: HCC-2998 colon
[16] = tested on: SNB-78 CNS
[17] = tested on: MOLT-4 leukemia
[18] = tested on: HOP-62 NSCLC
[19] = tested on: NCI-H460 lung
[20] = tested on: SK-MEL-2 melanoma

CC/C(CC(=O)CCC(=O)Nc1ccc(C)c(C)c1)=N\NC(=O)c1cc2ccccc2cc1O
TGI [1]: > 100 µM
TGI [2]: > 100 µM
TGI [3]: 91.3 µM
TGI [4]: 87.3 µM
TGI [5]: > 100 µM
TGI [6]: 43.9 µM
TGI [7]: > 100 µM
TGI [8]: 69 µM
TGI [9]: > 100 µM
TGI [10]: > 100 µM
TGI [11]: > 100 µM
TGI [12]: > 100 µM
TGI [13]: 88.3 µM
TGI [14]: 66.7 µM
TGI [15]: 43.2 µM
TGI [16]: > 100 µM
TGI [17]: > 100 µM
TGI [18]: > 100 µM
TGI [19]: > 100 µM
TGI [20]: > 100 µM
